Data taken from PMC7693658, “SaUspA, the Universal Stress Protein of Sulfolobus acidocaldarius Stimulates the Activity of the PP2A Phosphatase and Is Involved in Growth at High Salinity” (Frontiers in Microbiology, 2020).

T1: SaUspA (Sulfolobus acidocaldarius, UniProt Q4JAC8)
T1 construct: gene Saci_0887
T1 sequence (Q4JAC8 1-128): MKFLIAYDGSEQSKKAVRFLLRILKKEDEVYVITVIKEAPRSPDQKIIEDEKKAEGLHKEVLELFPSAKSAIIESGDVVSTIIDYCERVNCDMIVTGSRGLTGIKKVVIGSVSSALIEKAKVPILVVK

T2: ArnC (Sulfolobus acidocaldarius, UniProt Q4J9J0)
T2 construct: gene Saci_1193; purified kinase; expression in E. coli Rosetta (DE3)/pLysS, construct details in earlier work
T2 sequence (Q4J9J0 1-663): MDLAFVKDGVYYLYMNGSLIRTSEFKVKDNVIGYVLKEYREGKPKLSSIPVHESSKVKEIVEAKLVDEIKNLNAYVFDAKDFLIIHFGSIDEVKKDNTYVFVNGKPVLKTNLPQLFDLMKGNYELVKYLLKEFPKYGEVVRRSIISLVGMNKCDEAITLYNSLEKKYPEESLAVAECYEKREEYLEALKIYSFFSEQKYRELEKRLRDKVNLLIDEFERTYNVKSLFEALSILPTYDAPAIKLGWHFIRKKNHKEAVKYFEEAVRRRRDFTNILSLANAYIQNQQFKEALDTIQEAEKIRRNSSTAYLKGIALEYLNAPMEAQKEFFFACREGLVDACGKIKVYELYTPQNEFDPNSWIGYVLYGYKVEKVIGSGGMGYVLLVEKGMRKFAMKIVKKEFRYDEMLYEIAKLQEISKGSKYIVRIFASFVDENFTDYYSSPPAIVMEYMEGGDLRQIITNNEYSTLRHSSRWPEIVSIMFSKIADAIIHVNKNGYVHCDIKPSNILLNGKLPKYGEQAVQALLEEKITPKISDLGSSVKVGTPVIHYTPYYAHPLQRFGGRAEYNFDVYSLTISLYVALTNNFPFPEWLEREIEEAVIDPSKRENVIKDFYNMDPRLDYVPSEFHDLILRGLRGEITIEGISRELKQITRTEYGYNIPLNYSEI

T3: ArnD (Sulfolobus acidocaldarius, UniProt Q4J879)
T3 construct: gene Saci_1694; purified kinase; expression in E. coli Rosetta (DE3)/pLysS, construct details in earlier work
T3 sequence (Q4J879 1-413): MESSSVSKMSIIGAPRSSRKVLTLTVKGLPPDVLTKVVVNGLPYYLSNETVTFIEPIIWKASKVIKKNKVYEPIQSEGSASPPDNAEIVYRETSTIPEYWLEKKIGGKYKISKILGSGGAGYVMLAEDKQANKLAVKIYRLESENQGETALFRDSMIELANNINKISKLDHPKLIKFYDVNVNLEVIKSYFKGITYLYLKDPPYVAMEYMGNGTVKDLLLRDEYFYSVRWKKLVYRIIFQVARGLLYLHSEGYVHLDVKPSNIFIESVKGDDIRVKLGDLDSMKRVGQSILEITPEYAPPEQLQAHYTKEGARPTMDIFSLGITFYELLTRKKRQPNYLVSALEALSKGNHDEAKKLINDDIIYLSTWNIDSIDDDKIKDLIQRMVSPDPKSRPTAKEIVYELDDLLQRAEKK

B1: C-terminally StrepII-tagged SaUspA (universal stress protein UspA of Sulfolobus acidocaldarius, Saci_0887) (natural protein, UniProt Q4JAC8 1-128, looked up)
chain: T1 sequence (Q4JAC8 1-128)
notes: SaUspA (UspA, Saci_0887), universal stress protein of Sulfolobus acidocaldarius; printed molecular weight 16.2 kDa; Made nucleotide free by ammonium sulfate precipitation; in some samples pre-incubated with 1 mM ATP and 5 mM MgCl2; also called SaUspA-Strep; SaUspA^WT; not shown: StrepII, C-terminal, kept

What was measured:
SaUspA = biological target: T1, SaUspA; assay: Ni-NTA co-purification with PP2A-his, Western blot; conditions: 1 mM ATP, 5 mM MgCl2, pH 8; ATP increases binding to PP2A
ArnC = biological target: T2, ArnC; assay: in vitro phosphorylation, autophosphorylation; assay type: biochemical; conditions: 1 mM MnCl2, pH 8, 55°C; labelled compound
ArnD = biological target: T3, ArnD; assay: in vitro phosphorylation, autophosphorylation; assay type: biochemical; conditions: 1 mM MnCl2, pH 8, 55°C; labelled compound
[1] = biological target: the molecule itself; assay: SEC; purified Strep II-tagged SaUspA on a Superdex 200 10/300 GL column in lysis buffer (50 mM Tris pH8, 150 mM NaCl); standards of 158, 44, 17 and 1.35 kDa; peak at about 30 kDa against 16.2 kDa for the monomer

| Molecule | Ni-NTA co-purification with PP2A-his, Western blot (SaUspA) | in vitro phosphorylation, autophosphorylation (ArnC) | in vitro phosphorylation, autophosphorylation (ArnD) | stoichiometry N [1] |
| --- | --- | --- | --- | --- |
| Nc1ncnc2c1ncn2[C@@H]1O[C@H](COP(=O)(O)OP(=O)(O)OP(=O)(O)O)[C@@H](O)[C@H]1O [ATP] | This indicated that ATP-binding of SaUspA enhanced its interaction with PP2A | autophosphorylation was detected for both ArnC and ArnD | autophosphorylation was detected for both ArnC and ArnD | – |
| B1 | – | – | – | 2 |
